Holding throughout (format): cell-based
For one assay, the target named is CRAC channel (Homo sapiens (Human), UniProt Q96D31). Put plainly: GFP-NFAT translocation-based high-content screening (TG-stimulated HeLa cells stably expressing GFP-NFAT). From the text: It is known that thapsigargin (TG) can induce the CRAC channel to open resulting in the calcium influx. The elevation of calcium in cytoplasm can activate the Ca^2+-calcineurin-NFAT pathway followed by NFAT translocation from the cytoplasm to the nucleus to regulate gene transcription. Therefore, the inventors built a GFP-NFAT translocation-based high-content screening method to evaluate the activity of compounds on CRAC channel. Briefly, a HeLa cell line stably expressing GFP-NFAT was established and used, and the images after chemical stimulation in the presence of TG were acquired using an IN Cell Analyzer 6000 confocal laser imaging system, and then the GFP fluorescent intensity ratio between cytoplasm and nucleus was analyzed to reflect the inhibitory activity of compound on CRAC channel.
Chain of CRAC channel (Q96D31 whole entry): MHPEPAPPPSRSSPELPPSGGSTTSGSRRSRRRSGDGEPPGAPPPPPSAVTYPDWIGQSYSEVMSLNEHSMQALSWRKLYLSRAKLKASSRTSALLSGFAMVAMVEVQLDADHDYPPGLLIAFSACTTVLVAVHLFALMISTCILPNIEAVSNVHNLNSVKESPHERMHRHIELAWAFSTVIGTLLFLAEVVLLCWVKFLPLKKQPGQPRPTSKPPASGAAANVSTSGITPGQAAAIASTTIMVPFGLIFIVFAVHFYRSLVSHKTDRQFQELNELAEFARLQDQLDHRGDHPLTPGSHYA
Briefly, GFP-NFAT stable cells were cultured in Dulbecco's modified eagle's medium (DMEM) supplemented with 10% FBS in 5% carbon dioxide at 37° C. When it reached 90% confluency, a cell suspension with a concentration of […] was prepared, and an amount of 2000 cells per well (25 μL/well) was seeded in 384 well plate, putting it at the room temperature for 1 h to make sure the cells distribute evenly, then the cells were incubated overnight. First, primary screening of the selected compounds was conducted. A series of compound solutions with a concentration of 200 μM in MEDM medium were prepared in a 96 well plate and then added to a 384 well plate using a Beckman Coulter automatic drug adding system, in 4 duplicates, and incubated for 30 min at 37° C. SKF was selected as the positive control. Then, 1 μM TG and 1 mM Ca^2+ were added to 384-well plate using Beckman Coulter automatic drug adding system and incubated for 20 min. Subsequently, 384 well plate was gently washed with PBS twice, and the cells were fixed with 4% PFA (25 μl per well) for 10˜15 mins at room temperature, then washed with PBS gently, added 0.5% Triton X-100 (25 μL per well), and incubated for 5 mins aFt room temperature, stained with DAPI (1 μg/mL) for 5˜10 mins at room temperature, washed with PBS and added 30 μL PBS per well to image on confocal laser imaging system (objective lens: 10×, FITC and UV). Using Pipeline Plot software (NAFT translocation protocol), the intensity of green fluorescence was analyzed in nucleus and cytosol, calculate the ratio of nucleus:cytosol, normalize TG stimulate NFAT translocation as 1 and no TG adding as 0. Finally, the data was analyzed using GraphPad Prism 5 software.

The test system of a further assay is calcium influx. Put plainly: Inhibitory activity on calcium influx.
A further assay has as its system U87 cells. Put plainly: Cell cycle analysis in U87 cells. Particulars: compared to control. As to the method: (§1) Cells were treated with or without compounds at 37° C. with 5% CO2. After incubation for 24 h, cells were collected by trypsinization and fixed with cold 95% ethanol over 30 min at 4° C. Subsequently, the cell suspension was centrifuged at 1000 rmp/5 min, and washed with PBS one time. The cell pellets were resuspended in 0.4 mL PBS and treated with RNAase A (0.1 mg/mL) at 37° C. for 30 min. Then, propidium iodine (50 μg/mL, PI) was added and the cells were stained for 30 min at 37° C. Analysis of cellular DNA content was performed by flow cytometry.

Assay [1] has as its system MDA-MB-231 breast cancer cells. Put plainly: Invasion assay.
Assay [2] relates to cytokine IL-2 expression in primary T cells. Put plainly: Effect of compounds on cytokine expression in primary T cells (flow cytometry). Particulars: Mus musculus, T-cell. The procedure: The lymph nodes and a spleen from mouse were collected, and then the immune cells were induced to differentiate towards Th1 cells in presence of α-CD3, α-CD28, IL-12, and IL-2. After obtaining Th1 cells, the cells were amplified and then the cells were treated with drugs. The expression level of the cytokine was analyzed using flow cytometry.

The test system of a further assay is Jurkat cells. Put plainly: Cell cycle analysis in Jurkat cells. Particulars: compared to control. The procedure:
as §1

In assay [3] the test system is MDA-MB-231 breast cancer cells. Put plainly: Migration assay (wound healing assay). Particulars: MDA-MB-231, wound healing assay. As to the method: The effect of compounds on inhibiting migration was evaluated using wound healing assay. Briefly, cells were seeded in a six well-plate, and a wound was generated by scratching the cell monolayer with a 200 μL pipette tip. Then, cells were continued to be cultured in the presence or absence of compounds, and the photographic recording was performed at 0 h, 24 h, and 48 h respectively. The number of the migrated cells was calculated with ImageJ software.

Where two headings read alike, the source gives them in different places.

A word on the IC50: it is the concentration at which inhibition is half-maximal. On to `CCN/C(=N\c1cc(Cl)cc(Cl)c1)S[C@H]1CC(=O)N(c2ccc(C(=O)O)cc2)C1=O` [Compound 41], for which the “Inhibitory activity on CRAC channel in primary screening (NFAT nucleus-to-cytosol ratio)” value on CRAC channel (200 μM compound) is given as “good activity”. Besides, the half-maximal inhibitory concentration (IC50) at CRAC channel (GFP-NFAT translocation assay, read-out: IC50 on CRAC channel) was about 100 µM; at CRAC channel (Table 1, hits from virtual screening, unit inferred, read-out: IC50 Value), 279 µM. The “Inhibitory activity on calcium influx” value in the assay with calcium influx is “obvious inhibitory activity”.
Take `CCOC(=O)c1ccc(N2C(=O)CC(S/C(=N/c3ccccc3)NC3CC3)C2=O)cc1` (stereo not shown) [Compound 87]: the “Effect on cell cycle” value in the assay on U87 cells and in the assay with Jurkat cells was “cell cycle arrest at GO stage” in each case. For the same compound, the Cell invasion result in assay [1] is on record as “greatly inhibit”. For the same compound, the IC50 at CRAC channel (Table 2, unit inferred, read-out: IC50 of the compounds (inhibitory activity on CRAC channel)) stood at 0.95 µM; in assay [2], 0.86 ± 0.12 µM. The Cell migration result in assay [3] is “greatly inhibit”.

The record behind these values is patent US11905244B2, “Chemical modulators of store-operated calcium channels and their therapeutic applications” (The Texas A&M University System, priority 2017, dated 2024).
